Reference: ChEMBL document CHEMBL1151980, “Tubulin-interactive natural products as anticancer agents” (2009)

Tested on: B16
Assay: In vivo antitumor activity against mouse B16 cells assessed as increase in life span
Format: functional

CC(=O)O[C@H]1C(=O)[C@@]2(C)[C@H]([C@H](OC(=O)c3ccccc3)[C@]3(O)C[C@H](OC(=O)[C@H](O)[C@@H](NC(=O)c4ccccc4)c4ccccc4)C(C)=C1C3(C)C)[C@]1(OC(C)=O)CO[C@@H]1C[C@@H]2O [PACLITAXEL]
Activity: 32%
